Starred links: 1 amine or outer side, 2 acyl side, 3 side chain; linkers in the order of their positions; H or OH if unused. Non-standard residues stand in square brackets, D forms with d. Residues, ends and D or L forms follow the SMILES beside them. Oic = O=C(O)[C@@H]1C[C@@H]2CCCC[C@@H]2N1; X10 = O=C(C(/C=C/CN[*:1])Cc1ccccc1)[*:2]; X5 = O=C(/C=C/c1cccc(CN[*:1])c1)[*:2]; X11 = O=C(/C=C/C1CCCCC1CN[*:1])[*:2]; X13 = O=C(CCc1cccc(CN[*:1])c1)[*:2]; X2 = O=C(/C=C/c1ccccc1CN[*:1])[*:2]; Hyp = O=C(O)[C@@H]1C[C@@H](O)CN1; X8 = O=C(CCc1ccccc1CN[*:1])[*:2]; dTic = O=C(O)[C@H]1Cc2ccccc2CN1
What was measured:
[1] = target: T1, bradykinin receptor, guinea pig terminal ileum homogenate (Cavia porcellus, UniProt O70526); assay: Guinea pig ileum binding of 3H-bradykinin; details: Table 1, read-out: Radioligand Binding Guinea Pig
T1 construct: from tissue; host or cells: terminal ileum of male Hartley guinea pigs, washed membrane homogenate
T1 sequence (O70526 1-372): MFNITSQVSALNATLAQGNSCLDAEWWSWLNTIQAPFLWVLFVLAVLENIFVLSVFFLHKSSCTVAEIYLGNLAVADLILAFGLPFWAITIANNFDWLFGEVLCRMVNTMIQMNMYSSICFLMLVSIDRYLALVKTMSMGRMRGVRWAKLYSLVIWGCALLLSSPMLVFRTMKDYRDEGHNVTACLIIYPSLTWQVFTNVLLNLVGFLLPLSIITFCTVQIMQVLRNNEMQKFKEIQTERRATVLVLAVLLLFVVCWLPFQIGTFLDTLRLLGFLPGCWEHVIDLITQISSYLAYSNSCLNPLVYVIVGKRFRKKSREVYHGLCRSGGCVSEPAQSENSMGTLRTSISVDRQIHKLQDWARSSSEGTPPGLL
Experimental: Binding of ^3 H-bradykinin was performed using the method of D. C. Manning, R. Vavrek, J. M. Stewart, and S. H. Snyder, J. Pharmacol. Exp. Ther., (1986) 237:504. The tissues used in the binding assay were terminal ileum from male Hartley guinea pigs (150-350 g). After dissection, tissues were placed in 20 volume of ice-cold buffer A (25 mM TES containing 0.2 g/l of 1,10-phenanthroline adjusted of pH 6.8 with ammonium hydroxide) and homogenized using a Polytron Tissumizer at setting 6 for 15 seconds. The homogenate was centrifuged at 50,000×g for 10 minutes, the supernatant discarded, and the pellet resuspended in ice-cold buffer A by homogenization with the Polytron. Each tissue was homogenized and centrifuged three times. The final pellet was resuspended in buffer A containing bovine serum albumin (1 g/l) and Bacitracin (0.14 g/l) to a final volume of 170 ml/g of the original tissue weight. The binding assay consisted of […] in 12×75 mm polypropylene tubes: 50 μl ^3 H-bradykinin (20,000 dpm, ~0.3 nM in the final assay volume), 100 μl displacing drug in buffer A, and 750 μl tissue homogenate. Each tray contained tubes, to which no drug was added to measure maximum binding and tubes to which bradykinin (1 μM final concentration) had been added, to measure […]. Specific binding accounted for 96-98% total binding. Tubes were incubated for 90 minutes at ambient temperature. The assays were terminated by filtration over Whatman GF/B glass fiber filters that had been pretreated for 2 hours with polyethyleneimine (2 g/l) using a Brandel Tissue Harvester, followed by washing with 4×1 ml aliquots of ice-cold 50 mM Tris, pH 7.4. Filters were dissolved in Ready-Safe Fluor (Beckman) for at least 90 minutes before quantitation by liquid scintillation spectrometry. Kd values were determined using saturation binding and analysis by EBDA (G. A. MacPherson, J. Pharmacol. Methods (1985) 213), followed by LIGAND (P. J. Munson, D. Rodbard, Anal. Biochem. (1980) 220). Ki values were determined using competitive analysis followed by EBDA and LIGAND.

[2] = target: T2, human bradykinin B2 receptor (Homo sapiens, UniProt P30411); assay: Radioligand binding, H2O.2 cell membranes, 3H-NPC17731; details: Table 1; 3H-NPC17731; read-out: Radioligand Binding Human 3H17731
T2 construct: The HindIII/XbaI fragment of one full-length clone, 126A, was inserted into pcDNAI neo vector; expressed in transfected cells
T2 sequence (P30411 1-391): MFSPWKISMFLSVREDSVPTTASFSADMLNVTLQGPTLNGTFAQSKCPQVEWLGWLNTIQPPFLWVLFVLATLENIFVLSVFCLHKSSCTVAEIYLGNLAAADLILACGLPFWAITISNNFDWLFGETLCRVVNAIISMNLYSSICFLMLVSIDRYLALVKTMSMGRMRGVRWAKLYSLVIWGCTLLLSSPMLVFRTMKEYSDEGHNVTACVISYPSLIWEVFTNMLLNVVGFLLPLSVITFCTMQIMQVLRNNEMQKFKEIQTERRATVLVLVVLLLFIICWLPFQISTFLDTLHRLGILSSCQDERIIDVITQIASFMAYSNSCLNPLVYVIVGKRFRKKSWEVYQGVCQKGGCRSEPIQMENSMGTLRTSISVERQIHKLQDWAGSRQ
Experimental: A human bradykinin B2 receptor was expressed in CHO/K cells. Briefly, approximately 2×10^6 plaques from a human uterus λgt10 cDNA library (Clontech Laboratories; Palo Alto, Calif.) were screened using a PCR fragment containing the coding region of the rat B2 receptor. This probe was generated by random-primed synthesis in the presence of α[^32 P]dATP. Duplicate filters were hybridized overnight at 42° C. in 1M NaCl, 50 mM Tris pH 7.5, 5× Denhardt's, 200 μg/ml salmon sperm DNA, 1% SDS, and 20% formamide. The filters were washed at 65° C. in 1× SSC and 1% SDS. Coincident positively hybridizing plaques were purified and rescreened with the same probe and stringency conditions. EcoRI fragments of positive clones were inserted into Bluescript/KS II+vector (Stratagene; La Jolla, Calif.) for sequence determination.
The nucleotide sequence of the cloned human B2 receptors was determined using double-stranded DNA and the dideoxy chain termination method. Commercially available T3 and T7 oligonucleotides (USB; Cleveland, Ohio) and synthetic 21-mer oligonucleotides (DNA/RNA Synthesizer; applied Biosystems Inc.; Palo Alto, Calif.) from both the known rat sequence and the determined human sequence were used to identify the nucleotide sequence from the 5' untranslated end to the BglII site in the 3' untranslated end of the clone.
CHO/K cells were plated in 2 ml of growth medium (Ham's F12 with 10% FBS) per 6 well plate and incubated at 37° C., 5% CO2 until they were 60% confluent. For each well, 4, 12, and 16 μg of DNA was diluted in 100 μl Opti-MEM I reduced serum medium (Gibco/BRL; Gaithersburg, Md.). 12 μl of TransfectASE reagent (Gibco/BRL) was diluted in a separate aliquot of 100 μl Opti-MEM I. The DNA and TransfecASE solutions were combined, mixed gently, and incubated at 25° C. for 15 minutes. This solution was then diluted to 1 ml with Opti-MEM I. Each well was washed twice with Opti-MEM I and 1 ml of the DNA/TransfectAse complex was added to each well. After a 5 hour incubation at 37° C. and 5% CO2, 1 ml of Ham's F12 with 20% FBS was added to each well and cells were incubated overnight. Media was replaced with growth medium and incubated for additional 24 hours.
This assay measures the ability of a bradykinin antagonist compound to compete for binding to the human B2 receptor with tritiated bradykinin or tritiated NPC17731, a bradykinin analog which is known to bind the B2 receptor and act as a bradykinin antagonist.
H2O.2 cells were grown to confluency in Ham's F12 media containing 10% FBS and 500 μg/ml Geneticin. Growth media was aspirated and the monolayer washed once with Dulbecco's PBS without Ca^++ and Mg^++. Cells were scraped in Dulbecco's PBS and centrifuged at 2,000×g for 10 minutes. Pellets were resuspended in 25 mM TES, 1 mM 1,10-phenanthroline pH 6.8 buffer and homogenized using a Ploytron at setting 5 for 10 seconds. An aliquot was taken for a protein determination using a BioRad protein assay kit. Membranes were centrifuged at 48,000×g for 10 minutes at 4° C. Pellets were resuspended in the TES buffer with 0.1% BSA and 0.014% bacitracin. 0.5 ml aliquots were frozen in liquid N2 and stored at -80° C. for up to 2 weeks.
Membranes from H2O.2 cells previously prepared were thawed at 37° C. and diluted in 25 mM TES, […] 1,10-phenanthroline pH 6.8 containing BSA and bactiracin. […] Non-specific binding was determined with 1 μM bradykinin. The tubes were incubated 90 minutes at 25° C. and the assay was terminated by rapid vacuum filtration onto Whatman GF/B filters presoaked with 0.2% PEI for 3 hours followed by 2×3 ml aliquots of ice-cold 50 mM Tris, pH 7.4. Radioactivity was counted with a Beckman scintillation counter.

[3] = system: bradykinin-induced contraction of guinea pig ileum longitudinal muscle; assay: Guinea pig ileum contraction assay; assay type: cell-based; details: Schild analysis against bradykinin
Experimental: Guinea pig intestine was removed and placed in a Petri dish containing Tyrodes solution and cut into 3-4 cm segments.
After equilibration of the tissues, appropriate volumes of bradykinin solutions were cumulatively added to the 10 ml tissue baths to increase the concentration of bradykinin in the bath step-by-step without washing out after each single dose. Higher concentrations were added only after the preceding contraction had reached a steady value. […] Antagonism of bradykinin responses to the presence of antagonist were determined by repeating the cumulative addition procedure for bradykinin after the tissue has been exposed to the antagonist for 5 minutes. Three or four different concentrations of antagonist were studied sequentially in the same preparations. Responses were expressed as a percentage of the maximum […] elicited by bradykinin in the absence of antagonist. pA2 values were calculated by Schild analysis.

Row | SMILES | Ki [1] | Ki [2] | Guinea Pig Ileum Contraction pA2 [3]
1 | N=C(N)NCCC[C@@H](N)C(=O)N[C@@H](CCCNC(=N)N)C(=O)NCc1ccccc1/C=C/C(=O)N[C@@H](Cc1ccccc1)C(=O)N[C@@H](CO)C(=O)N1Cc2ccccc2C[C@@H]1C(=O)N1[C@H](C(=O)N[C@@H](CCCNC(=N)N)C(=O)O)C[C@@H]2CCCC[C@@H]21 (H-[dR]R[X2]FS[dTic][Oic]R-OH) | 1270 nM |  | 
2 | N=C(N)NCCC[C@@H](N)C(=O)N[C@@H](CCCNC(=N)N)C(=O)NCc1cccc(/C=C/C(=O)N[C@@H](CO)C(=O)N2Cc3ccccc3C[C@@H]2C(=O)N2[C@H](C(=O)N[C@@H](CCCNC(=N)N)C(=O)O)C[C@@H]3CCCC[C@@H]32)c1 (H-[dR]R[X5]S[dTic][Oic]R-OH) | 496 nM |  | 
3 | N=C(N)NCCC[C@@H](N)C(=O)N[C@@H](CCCNC(=N)N)C(=O)NCc1ccccc1CCC(=O)N[C@@H](CO)C(=O)N1Cc2ccccc2C[C@@H]1C(=O)N1[C@H](C(=O)N[C@@H](CCCNC(=N)N)C(=O)O)C[C@@H]2CCCC[C@@H]21 (H-[dR]R[X8]S[dTic][Oic]R-OH) | 563 nM |  | 
4 | N=C(N)NCCC[C@@H](N)C(=O)N[C@@H](CCCNC(=N)N)C(=O)NCc1ccccc1/C=C/C(=O)N[C@@H](CO)C(=O)N1Cc2ccccc2C[C@@H]1C(=O)N1[C@H](C(=O)N[C@@H](CCCNC(=N)N)C(=O)O)C[C@@H]2CCCC[C@@H]21 (H-[dR]R[X2]S[dTic][Oic]R-OH) | 120 ± 8 nM | 27 nM | 
5 | N=C(N)NCCC[C@@H](N)C(=O)N[C@@H](CCCNC(=N)N)C(=O)NCc1cccc(CCC(=O)N[C@@H](CO)C(=O)N2Cc3ccccc3C[C@@H]2C(=O)N2[C@H](C(=O)N[C@@H](CCCNC(=N)N)C(=O)O)C[C@@H]3CCCC[C@@H]32)c1 (H-[dR]R[X13]S[dTic][Oic]R-OH) | 466 nM |  | 
6 | N=C(N)NCCC[C@@H](N)C(=O)N[C@@H](CCCNC(=N)N)C(=O)N1CCC2(CC1)C(=O)N(CC(=O)N[C@@H](CO)C(=O)N1Cc3ccccc3C[C@@H]1C(=O)N1[C@H](C(=O)N[C@@H](CCCNC(=N)N)C(=O)O)C[C@@H]3CCCC[C@@H]31)CN2C1CCCCC1 [HDArgArgX[c-C6 H11]CH2 COSerDTicOicArgOH] |  |  | 6.4
7 | N=C(N)NCCC[C@@H](N)C(=O)N[C@@H](CCCNC(=N)N)C(=O)NCC1CCCCC1/C=C/C(=O)N[C@@H](CO)C(=O)N1Cc2ccccc2C[C@@H]1C(=O)N1[C@H](C(=O)N[C@@H](CCCNC(=N)N)C(=O)O)C[C@@H]2CCCC[C@@H]21 (some centres unmarked) (H-[dR]R[X11]S[dTic][Oic]R-OH) | 638 nM |  | 
8 | C[C@H](NC(=O)/C=C/c1ccccc1CNC(=O)[C@H](CCCNC(=N)N)NC(=O)[C@H](N)CCCNC(=N)N)C(=O)N1Cc2ccccc2C[C@@H]1C(=O)N1[C@H](C(=O)N[C@@H](CCCNC(=N)N)C(=O)O)C[C@@H]2CCCC[C@@H]21 (H-[dR]R[X2]A[dTic][Oic]R-OH) | 278 nM |  | 
9 | N=C(N)NCCC[C@@H](N)C(=O)N[C@@H](CCCNC(=N)N)C(=O)N1CCC[C@H]1C(=O)N1C[C@H](O)C[C@H]1C(=O)NC/C=C/C(Cc1ccccc1)C(=O)N[C@@H](CO)C(=O)N1Cc2ccccc2C[C@@H]1C(=O)N1[C@H](C(=O)N[C@@H](CCCNC(=N)N)C(=O)O)C[C@@H]2CCCC[C@@H]21 (some centres unmarked) (H-[dR]RP[Hyp][X10]S[dTic][Oic]R-OH) | 358 nM |  | 
10 | N=C(N)NCCC[C@@H](N)C(=O)N[C@@H](CCCNC(=N)N)C(=O)N1CCC2(CC1)C(=O)N(CC(=O)N[C@@H](CO)C(=O)N1Cc3ccccc3C[C@@H]1C(=O)N1[C@H](C(=O)N[C@@H](CCCNC(=N)N)C(=O)O)C[C@@H]3CCCC[C@@H]31)CN2c1ccccc1 [HDArgArgX[Ph]CH2 COSerDTicOicArgOH] |  |  | 6.7

From US5817756A, “Pseudo- and non-peptide bradykinin receptor antagonists” (Scios Inc., priority 1995, dated 1998)
